Measured values published in PubChem BioAssay (NCI).
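48-hour exposure; five concentrations; linearly interpolated endpoints. At the GI50, growth is halved. TGI denotes the concentration required for complete inhibition of growth.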

Legend:
Experiment in all cases: inhibition of tumour cell growth, NCI panel, 48 h
HT29 colon = test system: HT29 colon
IGROV1 ovarian = test system: IGROV1 ovarian
OVCAR-3 ovarian = test system: OVCAR-3 ovarian
M19-MEL melanoma = test system: M19-MEL melanoma
RXF-631 renal = test system: RXF-631 renal
A549 NSCLC = test system: A549 NSCLC
OVCAR-4 ovarian = test system: OVCAR-4 ovarian
UO-31 renal = test system: UO-31 renal
OVCAR-8 ovarian = test system: OVCAR-8 ovarian
HOP-92 NSCLC = test system: HOP-92 NSCLC
EKVX NSCLC = test system: EKVX NSCLC
SK-OV-3 ovarian = test system: SK-OV-3 ovarian
DLD-1 colon = test system: DLD-1 colon
SF-539 CNS = test system: SF-539 CNS
SF-295 CNS = test system: SF-295 CNS
SF-268 CNS = test system: SF-268 CNS
MOLT-4 leukemia = test system: MOLT-4 leukemia
SNB-19 CNS = test system: SNB-19 CNS
KM12 colon = test system: KM12 colon
SN12C renal = test system: SN12C renal
RXF 393 renal = test system: RXF 393 renal
TK-10 renal = test system: TK-10 renal
NCI-H460 lung = test system: NCI-H460 lung
HCT-15 colon = test system: HCT-15 colon
M14 melanoma = test system: M14 melanoma
NCI-H226 lung = test system: NCI-H226 lung
CCRF-CEM leukemia = test system: CCRF-CEM leukemia
A498 renal = test system: A498 renal
K-562 leukemia = test system: K-562 leukemia
SW-620 colon = test system: SW-620 colon
LOX IMVI melanoma = test system: LOX IMVI melanoma
SNB-78 CNS = test system: SNB-78 CNS
SK-MEL-28 melanoma = test system: SK-MEL-28 melanoma
COLO 205 colon = test system: COLO 205 colon
OVCAR-5 ovarian = test system: OVCAR-5 ovarian
CAKI-1 renal = test system: CAKI-1 renal
LXFL 529 NSCLC = test system: LXFL 529 NSCLC
DMS 273 small cell lung = test system: DMS 273 small cell lung
UACC-62 melanoma = test system: UACC-62 melanoma
SK-MEL-5 melanoma = test system: SK-MEL-5 melanoma
NCI-H23 lung = test system: NCI-H23 lung
HOP-18 NSCLC = test system: HOP-18 NSCLC
786-0 renal = test system: 786-0 renal
HCT-116 colon = test system: HCT-116 colon
ACHN renal = test system: ACHN renal
MALME-3M melanoma = test system: MALME-3M melanoma
NCI-H522 lung = test system: NCI-H522 lung
SK-MEL-2 melanoma = test system: SK-MEL-2 melanoma
HOP-62 NSCLC = test system: HOP-62 NSCLC
HL-60(TB) leukemia = test system: HL-60(TB) leukemia
SR leukemia = test system: SR leukemia
SNB-75 CNS = test system: SNB-75 CNS
UACC-257 melanoma = test system: UACC-257 melanoma
KM20L2 colon = test system: KM20L2 colon
U251 CNS = test system: U251 CNS
XF 498 CNS = test system: XF 498 CNS
HCC-2998 colon = test system: HCC-2998 colon
RPMI-8226 leukemia = test system: RPMI-8226 leukemia
DMS 114 small cell lung = test system: DMS 114 small cell lung

Molecule `Cc1ccc(-n2c(O)c(C=N)c(=O)n(-c3ccc(C)cc3)c2=O)cc1` has a TGI (HT29 colon) of over 100 µM, a TGI (IGROV1 ovarian) of over 100 µM and a TGI (OVCAR-3 ovarian) of over 100 µM. It also gave a TGI (M19-MEL melanoma) of over 100 µM, a TGI (RXF-631 renal) of over 100 µM and a TGI (A549 NSCLC) of over 100 µM. It also gave a TGI (OVCAR-4 ovarian) of over 100 µM, a TGI (UO-31 renal) of over 100 µM and a TGI (OVCAR-8 ovarian) of over 100 µM. It also gave a TGI (HOP-92 NSCLC) of 95.9 µM, a TGI (EKVX NSCLC) of over 100 µM and a TGI (SK-OV-3 ovarian) of 78.8 µM. The TGI (DLD-1 colon) was over 100 µM, the TGI (SF-539 CNS) was over 100 µM and the TGI (SF-295 CNS) was over 100 µM. It also gave a TGI (SF-268 CNS) of over 100 µM, a TGI (MOLT-4 leukemia) of over 100 µM and a TGI (SNB-19 CNS) of over 100 µM. The TGI (KM12 colon) was over 100 µM, the TGI (SN12C renal) was over 100 µM and the TGI (RXF 393 renal) was over 100 µM. For the same molecule, the TGI (TK-10 renal) was over 100 µM, the TGI (NCI-H460 lung) was over 100 µM and the TGI (HCT-15 colon) was over 100 µM. The TGI (M14 melanoma) was over 100 µM, the TGI (NCI-H226 lung) was over 100 µM and the TGI (CCRF-CEM leukemia) was over 100 µM. The TGI (A498 renal) was over 100 µM, the TGI (K-562 leukemia) was over 100 µM and the TGI (SW-620 colon) was over 100 µM. For the same molecule, the TGI (LOX IMVI melanoma) was over 100 µM, the TGI (SNB-78 CNS) was over 100 µM and the TGI (SK-MEL-28 melanoma) was over 100 µM. For the same molecule, the TGI (COLO 205 colon) was over 100 µM, the TGI (OVCAR-5 ovarian) was over 100 µM and the TGI (CAKI-1 renal) was over 100 µM. It also gave a TGI (LXFL 529 NSCLC) of over 100 µM, a TGI (DMS 273 small cell lung) of over 100 µM and a TGI (UACC-62 melanoma) of over 100 µM. The TGI (SK-MEL-5 melanoma) was over 100 µM, the TGI (NCI-H23 lung) was over 100 µM and the TGI (HOP-18 NSCLC) was over 100 µM. For the same molecule, the TGI (786-0 renal) was over 100 µM, the TGI (HCT-116 colon) was over 100 µM and the TGI (ACHN renal) was over 100 µM. It also gave a TGI (MALME-3M melanoma) of over 100 µM, a TGI (NCI-H522 lung) of over 100 µM and a TGI (SK-MEL-2 melanoma) of over 100 µM. For the same molecule, the TGI (HOP-62 NSCLC) was over 100 µM, the TGI (HL-60(TB) leukemia) was over 100 µM and the TGI (SR leukemia) was over 100 µM. For the same molecule, the TGI (SNB-75 CNS) was 75.2 µM, the TGI (UACC-257 melanoma) was over 100 µM and the TGI (KM20L2 colon) was over 100 µM.

Molecule `CCC[CH2][Sn]1([CH2]CCC)[O]CC(CN2CCCCC2)[O]1` (stereo not given) has a GI50 (HT29 colon) of 0.569 µM, a TGI (HT29 colon) of 1.88 µM and a GI50 (IGROV1 ovarian) of 1.12 µM. It also gave a TGI (IGROV1 ovarian) of 2.41 µM, a GI50 (OVCAR-3 ovarian) of 0.271 µM and a TGI (OVCAR-3 ovarian) of 0.821 µM. For the same molecule, the GI50 (M19-MEL melanoma) was 0.477 µM, the TGI (M19-MEL melanoma) was 1.73 µM and the GI50 (RXF-631 renal) was 0.124 µM. It also gave a TGI (RXF-631 renal) of 0.248 µM, a GI50 (A549 NSCLC) of 1.99 µM and a TGI (A549 NSCLC) of 3.81 µM. It also gave a GI50 (OVCAR-4 ovarian) of 0.226 µM, a TGI (OVCAR-4 ovarian) of 1.43 µM and a GI50 (UO-31 renal) of 0.954 µM. It also gave a TGI (UO-31 renal) of 2.14 µM, a GI50 (OVCAR-8 ovarian) of 0.283 µM and a TGI (OVCAR-8 ovarian) of 0.873 µM. The GI50 (HOP-92 NSCLC) was 0.193 µM, the TGI (HOP-92 NSCLC) was 0.885 µM and the GI50 (EKVX NSCLC) was 0.284 µM. For the same molecule, the TGI (EKVX NSCLC) was 1.92 µM, the GI50 (SK-OV-3 ovarian) was 1.3 µM and the TGI (SK-OV-3 ovarian) was 2.81 µM. It also gave a GI50 (DLD-1 colon) of 0.394 µM, a TGI (DLD-1 colon) of 1.85 µM and a GI50 (SF-539 CNS) of 0.391 µM. The TGI (SF-539 CNS) was 1.5 µM, the GI50 (U251 CNS) was 0.285 µM and the TGI (U251 CNS) was 1.11 µM. For the same molecule, the GI50 (SF-295 CNS) was 0.309 µM, the TGI (SF-295 CNS) was 1.32 µM and the GI50 (SF-268 CNS) was 0.295 µM. The TGI (SF-268 CNS) was 1.34 µM, the GI50 (MOLT-4 leukemia) was 0.158 µM and the TGI (MOLT-4 leukemia) was 0.646 µM. It also gave a GI50 (SNB-19 CNS) of 0.33 µM, a TGI (SNB-19 CNS) of 0.948 µM and a GI50 (XF 498 CNS) of 0.121 µM. For the same molecule, the TGI (XF 498 CNS) was 0.264 µM, the GI50 (KM12 colon) was 0.634 µM and the TGI (KM12 colon) was 2.1 µM. For the same molecule, the GI50 (SN12C renal) was 0.356 µM, the TGI (SN12C renal) was 1.43 µM and the GI50 (RXF 393 renal) was 0.299 µM. For the same molecule, the TGI (RXF 393 renal) was 0.542 µM, the GI50 (TK-10 renal) was 0.242 µM and the TGI (TK-10 renal) was 0.897 µM. For the same molecule, the GI50 (NCI-H460 lung) was 1.1 µM, the TGI (NCI-H460 lung) was 2.29 µM and the GI50 (HCT-15 colon) was 0.46 µM. It also gave a TGI (HCT-15 colon) of 1.67 µM, a GI50 (M14 melanoma) of 0.336 µM and a TGI (M14 melanoma) of 1.33 µM. For the same molecule, the GI50 (HCC-2998 colon) was 0.486 µM, the TGI (HCC-2998 colon) was 1.87 µM and the GI50 (RPMI-8226 leukemia) was 0.136 µM. It also gave a TGI (RPMI-8226 leukemia) of 0.484 µM, a GI50 (NCI-H226 lung) of 1.63 µM and a TGI (NCI-H226 lung) of 3.12 µM. The GI50 (DMS 114 small cell lung) was 0.156 µM, the TGI (DMS 114 small cell lung) was 0.654 µM and the GI50 (CCRF-CEM leukemia) was 0.117 µM. The TGI (CCRF-CEM leukemia) was 0.6 µM, the GI50 (A498 renal) was 0.276 µM and the TGI (A498 renal) was 0.785 µM. It also gave a GI50 (K-562 leukemia) of 0.109 µM, a TGI (K-562 leukemia) of 0.744 µM and a GI50 (SW-620 colon) of 0.137 µM. It also gave a TGI (SW-620 colon) of 0.388 µM, a GI50 (LOX IMVI melanoma) of 0.179 µM and a TGI (LOX IMVI melanoma) of 0.485 µM. It also gave a GI50 (SNB-78 CNS) of 0.266 µM, a TGI (SNB-78 CNS) of 0.761 µM and a GI50 (SK-MEL-28 melanoma) of 0.685 µM. The TGI (SK-MEL-28 melanoma) was 1.93 µM, the GI50 (COLO 205 colon) was 0.273 µM and the TGI (COLO 205 colon) was 0.883 µM. It also gave a GI50 (OVCAR-5 ovarian) of 1.53 µM, a TGI (OVCAR-5 ovarian) of 2.86 µM and a GI50 (CAKI-1 renal) of 0.0512 µM. For the same molecule, the TGI (CAKI-1 renal) was 0.333 µM, the GI50 (LXFL 529 NSCLC) was 0.0762 µM and the TGI (LXFL 529 NSCLC) was 0.263 µM. For the same molecule, the GI50 (DMS 273 small cell lung) was 0.271 µM, the TGI (DMS 273 small cell lung) was 1.25 µM and the GI50 (UACC-62 melanoma) was 0.301 µM. The TGI (UACC-62 melanoma) was 1.3 µM, the GI50 (SK-MEL-5 melanoma) was 0.582 µM and the TGI (SK-MEL-5 melanoma) was 1.91 µM. The GI50 (NCI-H23 lung) was 0.137 µM, the TGI (NCI-H23 lung) was 0.343 µM and the GI50 (786-0 renal) was 0.291 µM. For the same molecule, the TGI (786-0 renal) was 1.01 µM, the GI50 (HCT-116 colon) was 0.892 µM and the TGI (HCT-116 colon) was 2.13 µM. The GI50 (ACHN renal) was 0.269 µM, the TGI (ACHN renal) was 0.808 µM and the GI50 (MALME-3M melanoma) was 0.0628 µM. For the same molecule, the TGI (MALME-3M melanoma) was 0.616 µM, the GI50 (NCI-H522 lung) was 0.0487 µM and the TGI (NCI-H522 lung) was 0.176 µM. For the same molecule, the GI50 (SK-MEL-2 melanoma) was 0.185 µM, the TGI (SK-MEL-2 melanoma) was 0.422 µM and the GI50 (HOP-62 NSCLC) was 1.61 µM. It also gave a TGI (HOP-62 NSCLC) of 3.05 µM, a GI50 (HL-60(TB) leukemia) of 0.0683 µM and a TGI (HL-60(TB) leukemia) of 0.337 µM. The GI50 (SR leukemia) was 0.199 µM, the TGI (SR leukemia) was 0.619 µM and the GI50 (SNB-75 CNS) was 0.197 µM. It also gave a TGI (SNB-75 CNS) of 0.731 µM, a GI50 (UACC-257 melanoma) of 0.309 µM and a TGI (UACC-257 melanoma) of 1.05 µM. For the same molecule, the GI50 (KM20L2 colon) was 0.852 µM and the TGI (KM20L2 colon) was 2.21 µM.
